In patent publication US20110071150A1 (priority 2009, published 2011):

Test system: Jurkat IL-2 Production
Assay: Jurkat IL-2 Production Assay
Type: cell-based
Conditions: Homo sapiens, Jurkat cell (ATCC), 18-20 h incubation, PHA 5 μg/mL with 1% FBS, or PMA/Ionomycin with 30% FBS (table does not say which)
Procedure: Jurkat IL-2 Production Assay
Cell: Jurkat cell (ATCC) was grown in RPMI 1640 with 10% FBS and 1% penicillin/streptomycin. The cell density was kept at 1.2-1.8×10^6/mL in culture flask before seeding into culture plate, and the cell density in the plate was 0.5×10^6/[…]/well.
Culture media: RPMI 1640 with 1% FBS or 30% FBS for high serum assay.
Test compound: serial dilution was done in 100% DMSO, and intermediate dilution was done with RPMI 1640 medium with 1% FBS. The DMSO final concentration in culture well was 0.25%.
Stimulant: PHA (Sigma#L9017-10MG) was used for the assay with 1% FBS in culture medium, and added after 10 minutes exposure of cell to compound/DMSO. The PHA final concentration in culture well was 5 μg/mL. PMA (Sigma# P-8139 5MG)/Ionomycin (Sigma# 10634-5MG) was used for the assay with 30% FBS in culture medium, and added at same time point as the 1% FBS culture assay. The final concentration of PMA was 50 ng/mL, and Ionomycin final concentration was 500 ng/mL.
Incubation: at 37° C. with 5% CO2 and 95% humidity for 18 h˜20 h.
IC50: IC50 was calculated with the data analysis software XLfit4, General Pharmacology model 251.

IC50	Compound
397 nM	Cc1sc(C2CC2)nc1-c1ccc2[nH]c(-c3c(F)cccc3F)cc2c1 [Example 72, 5-(2-Cyclopropyl-5-methyl-thiazol-4-yl)-2-(2,6-difluoro-phenyl)-1H-indole]
60 nM	Cc1sc(-c2ncco2)nc1-c1ccc2[nH]c(-c3c(F)cccc3F)cc2c1 [Example 73, 2-(2,6-Difluoro-phenyl)-5-(5-methyl-2-oxazol-2-yl-thiazol-4-yl)-1H-indole]
668 nM	Cc1sc(C2CCOCC2)nc1-c1ccc2[nH]c(-c3c(F)cccc3F)cc2c1 [Example 74, 2-(2,6-Difluoro-phenyl)-5-[5-methyl-2-(tetrahydro-pyran-4-yl)-thiazol-4-yl]-1H-indole]
310 nM	Cn1nc(-c2cccnc2)cc1-c1ccc2[nH]c(-c3ccccc3F)cc2c1 [Example 75, 2-(2-Fluoro-phenyl)-5-(2-methyl-5-pyridin-3-yl-2H-pyrazol-3-yl)-1H-indole]
108 nM	CCn1nc(-c2cccnc2)cc1-c1ccc2[nH]c(-c3ccccc3F)cc2c1 [Example 76, 2-(2-Fluoro-phenyl)-5-(2-ethyl-5-pyridin-3-yl-2H-pyrazol-3-yl)-1H-indole]
169 nM	Cn1nc(-c2cccnc2)cc1-c1ccc2[nH]c(-c3ccccc3Cl)cc2c1 [Example 77, 2-(2-Chloro-phenyl)-5-(2-methyl-5-pyridin-3-yl-2H-pyrazol-3-yl)-1H-indole]
95 nM	CCn1nc(-c2cccnc2)cc1-c1ccc2[nH]c(-c3ccccc3Cl)cc2c1 [Example 78, 2-(2-Chloro-phenyl)-5-(2-ethyl-5-pyridin-3-yl-2H-pyrazol-3-yl)-1H-indole]
139 nM	Cc1ccccc1-c1cc2cc(-c3cc(-c4cccnc4)nn3C)ccc2[nH]1 [Example 79, 5-(2-Methyl-5-pyridin-3-yl-2H-pyrazol-3-yl)-2-o-tolyl-1H-indole]
91 nM	CCn1nc(-c2cccnc2)cc1-c1ccc2[nH]c(-c3ccccc3C)cc2c1 [Example 80, 5-(2-Ethyl-5-pyridin-3-yl-2H-pyrazol-3-yl)-2-o-tolyl-1H-indole]
501 nM	Cn1nc(-c2ccccn2)cc1-c1ccc2[nH]c(-c3ccccc3Cl)cc2c1 [Example 81, 2-(2-Chloro-phenyl)-5-(2-methyl-5-pyridin-2-yl-2H-pyrazol-3-yl)-1H-indole]
367 nM	Cn1nc(-c2ccccn2)cc1-c1ccc2[nH]c(-c3cc(F)ccc3Cl)cc2c1 [Example 82, 2-(2-Chloro-5-fluoro-phenyl)-5-(2-methyl-5-pyridin-2-yl-2H-pyrazol-3-yl)-1H-indole]
358 nM	Cn1nc(-c2ccccn2)cc1-c1ccc2[nH]c(-c3ccc(F)cc3Cl)cc2c1 [Example 83, 2-(2-Chloro-4-fluoro-phenyl)-5-(2-methyl-5-pyridin-2-yl-2H-pyrazol-3-yl)-1H-indole]
399 nM	Cn1nc(-c2cccnc2)cc1-c1ccc2[nH]c(-c3cccc(F)c3F)cc2c1 [Example 84, 2-(2,3-Difluoro-phenyl)-5-(2-methyl-5-pyridin-3-yl-2H-pyrazol-3-yl)-1H-indole]
149 nM	Cn1nc(-c2cccnc2)cc1-c1ccc2[nH]c(-c3cccc(Cl)c3Cl)cc2c1 [Example 85, 2-(2,3-Dichloro-phenyl)-5-(2-methyl-5-pyridin-3-yl-2H-pyrazol-3-yl)-1H-indole]
118 nM	Cn1nc(-c2cccnc2)cc1-c1ccc2[nH]c(-c3ccc(F)cc3Cl)cc2c1 [Example 86, 2-(2-Chloro-4-fluoro-phenyl)-5-(2-methyl-5-pyridin-3-yl-2H-pyrazol-3-yl)-1H-indole]
135 nM	Cn1nc(-c2cccnc2)cc1-c1ccc2[nH]c(-c3cc(Cl)ccc3Cl)cc2c1 [Example 87, 2-(2,5-Dichloro-phenyl)-5-(2-methyl-5-pyridin-3-yl-2H-pyrazol-3-yl)-1H-indole]
908 nM	COC(=O)c1ccc(-c2ccc3[nH]c(-c4c(F)cccc4F)cc3c2)c(Cl)c1 [Example 88, 4-[2-(2,6-Difluoro-phenyl)-1H-indol-5-yl]-3-chloro-benzoic acid methyl ester]
451 nM	Cc1cc(C(N)=O)ccc1-c1ccc2[nH]c(-c3c(F)cccc3F)cc2c1 [Example 89, 4-[2-(2,6-Difluoro-phenyl)-1H-indol-5-yl]-3-methyl-benzamide]
177 nM	COc1ccc(-c2ccc3[nH]c(-c4c(F)cccc4F)cc3c2)c(OC)c1 [Example 90, 2-(2,6-Difluoro-phenyl)-5-(2,4-dimethoxy-phenyl)-1H-indole]
456 nM	Cc1cc(F)ccc1-c1ccc2[nH]c(-c3c(F)cccc3F)cc2c1 [Example 91, 2-(2,6-Difluoro-phenyl)-5-(4-fluoro-2-methyl-phenyl)-1H-indole]

IC50	Compound
188 nM	Fc1cccc(F)c1-c1cc2cc(-c3ccc(C(F)(F)F)cc3C(F)(F)F)ccc2[nH]1 [Example 92, 5-(2,4-Bis-trifluoromethyl-phenyl)-2-(2,6-difluoro-phenyl)-1H-indole]
921 nM	COc1ncc(-c2ccc3[nH]c(-c4c(F)cccc4F)cc3c2)c(OC)n1 [Example 93, 2-(2,6-Difluoro-phenyl)-5-(2,4-dimethoxy-pyrimidin-5-yl)-1H-indole]
175 nM	Fc1cccc(F)c1-c1cc2cc(-c3ccc(C(F)(F)F)cc3Cl)ccc2[nH]1 [Example 94, 5-(2-Chloro-4-trifluoromethyl-phenyl)-2-(2,6-difluoro-phenyl)-1H-indole]
994 nM	COc1ccc(-c2ccc3[nH]c(-c4c(F)cccc4F)cc3c2)c(OC)n1 [Example 95, 2-(2,6-Difluoro-phenyl)-5-(2,6-dimethoxy-pyridin-3-yl)-1H-indole]
177 nM	CS(=O)(=O)c1ccc(-c2ccc3[nH]c(-c4c(F)cccc4F)cc3c2)c(C(F)(F)F)c1 [Example 96, 2-(2,6-Difluoro-phenyl)-5-(4-methanesulfonyl-2-trifluoromethyl-phenyl)-1H-indole]
72 nM	CN(C)S(=O)(=O)c1ccc(-c2ccc3[nH]c(-c4c(F)cccc4F)cc3c2)c(C(F)(F)F)c1 [Example 97, 4-[2-(2,6-Difluoro-phenyl)-1H-indol-5-yl]-N,N-dimethyl-3-trifluoromethyl-benzenesulfonamide]
279 nM	COc1ccc(-c2ccc3[nH]c(-c4c(F)cccc4F)cc3c2)c(Cl)c1 [Example 98, 5-(2-Chloro-4-methoxy-phenyl)-2-(2,6-difluoro-phenyl)-1H-indole]
344 nM	COc1ccc(-c2ccc3[nH]c(-c4c(F)cccc4F)cc3c2)c(C(F)(F)F)c1 [Example 99, 2-(2,6-Difluoro-phenyl)-5-(4-methoxy-2-trifluoromethyl-phenyl)-1H-indole]
307 nM	Cc1cc(OC(F)(F)F)ccc1-c1ccc2[nH]c(-c3c(F)cccc3F)cc2c1 [Example 100, 2-(2,6-Difluoro-phenyl)-5-(2-methyl-4-trifluoromethoxy-phenyl)-1H-indole]
593 nM	COc1ccc(-c2ccc3[nH]c(-c4c(F)cccc4F)cc3c2)c(C)n1 [Example 101, 2-(2,6-Difluoro-phenyl)-5-(6-methoxy-2-methyl-pyridin-3-yl)-1H-indole]
74 nM	Cc1cc(-c2ncco2)ccc1-c1ccc2[nH]c(-c3c(F)cccc3F)cc2c1 [Example 102, 2-(2,6-Difluoro-phenyl)-5-(2-methyl-4-oxazol-2-yl-phenyl)-1H-indole]
176 nM	COc1cc(-c2ncco2)ccc1-c1ccc2[nH]c(-c3c(F)cccc3F)cc2c1 [Example 103, 2-(2,6-Difluoro-phenyl)-5-(2-methoxy-4-oxazol-2-yl-phenyl)-1H-indole]
178 nM	Cc1cc(N2CCNCC2)ncc1-c1ccc2[nH]c(-c3c(F)cccc3F)cc2c1 [Example 104, 2-(2,6-Difluoro-phenyl)-5-(4-methyl-6-piperazin-1-yl-pyridin-3-yl)-1H-indole]
664 nM	Cc1sc(-c2ccnnc2)nc1-c1ccc2[nH]c(-c3c(F)cccc3F)cc2c1 [Example 105, 2-(2,6-Difluoro-phenyl)-5-(5-methyl-2-pyridazin-4-yl-thiazol-4-yl)-1H-indole]
488 nM	Cc1sc(I)nc1-c1ccc2[nH]c(-c3c(F)cccc3F)cc2c1 [Example 106, 2-(2,6-Difluoro-phenyl)-5-(2-iodo-5-methyl-thiazol-4-yl)-1H-indole]
601 nM	Cn1nc(-c2cc[nH]n2)cc1-c1ccc2[nH]c(-c3c(F)cccc3F)cc2c1 [Example 108, 2-(2,6-Difluoro-phenyl)-5-(1-methyl-1H,1′H-[3,3]bipyrazolyl-5-yl)-1H-indole]
190 nM	Cn1nc(-c2ncco2)cc1-c1ccc2[nH]c(-c3c(F)cccc3F)cc2c1 [Example 110, 2-(2,6-Difluoro-phenyl)-5-(2-methyl-5-oxazol-2-yl-2H-pyrazol-3-yl)-1H-indole]
318 nM	Cn1nc(Br)cc1-c1ccc2[nH]c(-c3c(F)cccc3F)cc2c1 [Example 111, 5-(5-Bromo-2-methyl-2H-pyrazol-3-yl)-2-(2,6-difluoro-phenyl)-1H-indole]
843 nM	COc1cc(C)c(-c2ccc3[nH]c(-c4ccccc4F)cc3c2)cn1 [Example 112, 2-(2-Fluoro-phenyl)-5-(6-methoxy-4-methyl-pyridin-3-yl)-1H-indole]
60 nM	COc1cc(C)c(-c2ccc3[nH]c(-c4c(F)cccc4F)cc3c2)cn1 [Example 113, 2-(2,6-Difluoro-phenyl)-5-(6-methoxy-4-methyl-pyridin-3-yl)-1H-indole]
